Source: patent publication US5387709A, “Substituted sulfonamides, process of preparation and medicines containing same” (Lipha Lyonnaise Industrielle Pharmaceutique, priority 1990, dated 1995)
pIC50: −log10 of the molar value. Like-named read-outs stand apart in the source and are kept apart here.

Assays:
[1] = test system: platelets of guinea-pig; assay: Inhibition of the platelet aggregation induced by U46619 (BORN test), guinea-pig platelets; assay type: cell-based; settings: read-out: PLATELET AGGREGATION GUINEA-PIG IC 50
From the text: (A) Inhibition of the platelet aggregation induced by U46619, a stable analogue of TXA2 (9,11-dideoxy-11α,9α-epoxymethanoprostaglandine F2 α):
The tests determine a concentration of compound which inhibits at 50% (CI50) a liminar aggregation induced by U46619. The activities of the compounds of the present invention are given in example 108.
(§1) The products of examples 1 to 107 have been tested for platelet aggregation on guinea-pig and on the contraction of the aorta in rat as described previously.

[2] = test system: rat aorta; assay: Inhibition of the U46619 induced rat aorta vasoconstriction; assay type: cell-based; settings: contraction by U46619 (142 nM), rat thoracic aorta, 37° C., read-out: VASOCONSTRICTION RAT AORTA IC 50
Method: (B) Inhibition of the U46619 induced rat aorta vasoconstriction:
male rats weighing about 300 g are put to death by euthanasia; the thoracic aorta is rapidly taken out. A sample of about 1 cm is cut into a spiral, and placed in a vat containing 20 ml of nutrient medium (Krebs-Henseleit) kept a 37° C. and oxygenated (O2 95%, CO2 5%). The contractions are recorded with an isotonic strain gauge. After a rest of 45 mn, supramaximum contractions are provoked by the addition of an analogue of TXA2 (U46619: 142 nM) to the survival medium. A plateau is generally reached after 10 mn of contact, the latter not exceeding 25 mn. A rest of 30 mn and a plurality of rinses take place after each contraction. The products are added 10 mn after U46619 and allowed to rest 15 mn, after which delay the inhibition is measured. The inhibitory concentration 50 (IC) is determined for each compound studied and on a minimum of 3 aortas. The activities of the compounds of the present invention are described in example 108.
as §1

[3] = Lethal dose 50 on the rat by intravenous injection; settings: in vivo
Method: The compounds of this invention are characterized by their absence of toxicity. By way of illustration, for the compound described in example 20, the lethal dose 50 determined on the rat, by intravenous injection is higher than 150 mg/kg.

O=C(O)Cc1ccc(CC2(CNS(=O)(=O)c3ccc(Cl)cc3)CCCC2)cc1 [Example 20, Sodium 4-[[1-[[[(4-chlorophenyl)sulfonyl]amino]methyl]cyclopentyl]methyl]benzeneacetate]
pIC50 [1]: 6.55 | pIC50 [2]: 7.15 | LD50 [3]: > 150 mg/kg

CCN(CC)CCOC(=O)Cc1ccc(CC2(CNS(=O)(=O)c3ccc(Cl)cc3)CCCC2)cc1 [Example 79, 2-(Diethylamino)ethyl 4-[[1-[[[(4-Chlorophenyl)sulfonyl]amino]methyl]cyclopentyl]methyl]benzeneacetate]
pIC50 ([1]; Cavia porcellus, Platelet): 7.00 | pIC50 ([2]; Rattus norvegicus): 6.77

O=C(O)Cc1ccc(CC2(CNS(=O)(=O)c3ccc(Br)cc3)CCCC2)cc1 [Example 53, 4-[[1-[[[(4-Bromophenyl)sulfonyl]amino]methyl]cyclopentyl]methyl]benzeneacetic acid]
pIC50 ([1]; Cavia porcellus, Platelet): 6.80 | pIC50 ([2]; Rattus norvegicus): 8.00

O=C(O)Cc1ccc(CC2(CNS(=O)(=O)c3ccc(C4CCCCC4)cc3)CCCC2)cc1 [Example 99, 4-[[1-[[[(4-Cyclohexylphenyl)sulfonyl]amino]methyl]cyclopentyl]methyl]benzeneacetic acid]
pIC50 ([1]; Cavia porcellus, Platelet): < 5.30 | pIC50 ([2]; Rattus norvegicus): < 6.00

O=S(=O)(O)Cc1ccc(CC2(CNS(=O)(=O)c3ccc(Cl)cc3)CCCC2)cc1 [Example 80, 4-[[1-[[[(4-Chlorophenyl)sulfonyl]amino]methyl]cyclopentyl]methyl]benzenemethanesulfonic acid]
pIC50 ([1]; Cavia porcellus, Platelet): 5.54 | pIC50 ([2]; Rattus norvegicus): 6.72

O=C(O)Cc1ccc([C@@H]2CCCC[C@H]2NS(=O)(=O)c2ccc(Cl)cc2)cc1 (relative stereo) [Example 10, Trans-4-[2-[[(4-chlorophenyl)sulfonyl]amino]cyclohexyl]benzeneacetic acid]
pIC50 ([1]; Cavia porcellus, Platelet): 5.89 | pIC50 ([2]; Rattus norvegicus): 5.30

NC(=O)Cc1ccc(CC2(CNS(=O)(=O)c3ccc(Cl)cc3)CCCC2)cc1 [Example 75, 4-[[1-[[[(4-Chlorophenyl)sulfonyl]amino]methyl]cyclopentyl]methyl]benzeneacetamide]
pIC50 ([1]; Cavia porcellus, Platelet): < 5.30 | pIC50 ([2]; Rattus norvegicus): < 6.00

O=C(O)Cc1ccc(CC2(CNS(=O)(=O)c3ccc(Cl)cc3)CCCCC2)cc1 [Example 87, 4-[[1-[[[(4-Chlorophenyl)sulfonyl]amino]methyl]cyclohexyl]methyl]benzeneacetic acid]
pIC50 ([1]; Cavia porcellus, Platelet): 5.40 | pIC50 ([2]; Rattus norvegicus): 6.22

O=C(O)Cc1ccc(CC2(CNS(=O)(=O)c3c[nH]cn3)CCCC2)cc1 [Example 69, 4-[[1-[[[(Imidazol-4-yl)sulfonyl]amino]methyl]cyclopentyl]methyl]benzeneacetic acid]
pIC50 ([1]; Cavia porcellus, Platelet): < 5.30 | pIC50 ([2]; Rattus norvegicus): < 6.00

C[S+]([O-])c1ccc(S(=O)(=O)NCC2(Cc3ccc(CC(=O)O)cc3)CCCC2)cc1 (centres unmarked) [Example 84, 4-[[1-[[[(4-Methylsulfinylphenyl)sulfonyl]amino]methyl]cyclopentyl]methyl]benzeneacetic acid]
pIC50 ([1]; Cavia porcellus, Platelet): < 5.30 | pIC50 ([2]; Rattus norvegicus): 6.00

CS(=O)(=O)c1ccc(S(=O)(=O)NCC2(Cc3ccc(CC(=O)O)cc3)CCCC2)cc1 [Example 63, 4-[[1-[[[(4-Methylsulfonylphenyl)sulfonyl]amino]methyl]cyclopentyl]methyl]benzeneacetic acid]
pIC50 ([1]; Cavia porcellus, Platelet): < 5.30 | pIC50 ([2]; Rattus norvegicus): < 6.00

O=P(O)(O)Cc1ccc(CC2(CNS(=O)(=O)c3ccc(Cl)cc3)CCCC2)cc1 [Example 83, [[4-[[1-[[[(4-Chlorophenyl)sulfonyl]amino]methyl]cyclopentyl]methyl]phenyl]methyl]phosphonic acid]
pIC50 ([1]; Cavia porcellus, Platelet): 6.03 | pIC50 ([2]; Rattus norvegicus): 6.00

O=C(O)CCNC(=O)Cc1ccc(CC2(CNS(=O)(=O)c3ccc(Cl)cc3)CCCC2)cc1 [Example 76, 3-[[2-[4-[[1-[[[(4-Chlorophenyl)sulfonyl]amino]methyl]cyclopentyl]methyl]phenyl]-1-oxoethyl]amino]propanoic acid]
pIC50 ([1]; Cavia porcellus, Platelet): 5.54 | pIC50 ([2]; Rattus norvegicus): < 6.00

O=C(O)Cc1ccc(CC2(CNS(=O)(=O)c3cccc(C(F)(F)F)c3)CCCC2)cc1 [Example 56, 4-[[1-[[[(3-Trifluoromethylphenyl)sulfonyl]amino]methyl]cyclopentyl]methyl]benzeneacetic acid]
pIC50 ([1]; Cavia porcellus, Platelet): 5.30 | pIC50 ([2]; Rattus norvegicus): 6.00

Complex of sodium trans-4-[[2-[[(4-chlorophenyl)sulfonyl]amino]cyclopentyl]methyl]benzeneacetate and β-cyclodextrine (1:1) [Example 22]
pIC50 [1]: 6.15 | pIC50 [2]: 6.82

COC(=O)Cc1ccc(CC2(CNS(=O)(=O)c3ccc(Cl)cc3)CCCC2)cc1 [Example 18, Methyl 4-[[1-[[[(4-chlorophenyl)sulfonyl]amino]methyl]cyclopentyl]methyl]benzeneacetate]
pIC50 ([1]; Cavia porcellus, Platelet): 6.18 | pIC50 ([2]; Rattus norvegicus): < 6.00

CC(C)(C)c1ccc(S(=O)(=O)NCC2(Cc3ccc(CC(=O)O)cc3)CCCC2)cc1 [Example 61, 4-[[1-[[[[4-(1,1-Dimethylethyl)phenyl]sulfonyl]amino]methyl]cyclopentyl]methyl]benzeneacetic acid]
pIC50 ([1]; Cavia porcellus, Platelet): < 5.30 | pIC50 ([2]; Rattus norvegicus): < 6.00

O=C(O)Cc1ccc(CC2(CNS(=O)(=O)c3ccc(OC(F)(F)F)cc3)CCCC2)cc1 [Example 64, 4-[[1-[[[(4-Trifluoromethoxyphenyl)sulfonyl]amino]methyl]cyclopentyl]methyl]benzeneacetic acid]
pIC50 ([1]; Cavia porcellus, Platelet): 5.59 | pIC50 ([2]; Rattus norvegicus): 6.89

O=C(O)Cc1ccc(CC2(CNS(=O)(=O)c3cccc4ccccc34)CCCC2)cc1 [Example 96, 4-[[1-[[[(Naphthalen-1-yl)sulfonyl]amino]methyl]cyclopentyl]methyl]benzeneacetic acid]
pIC50 ([1]; Cavia porcellus, Platelet): 6.12 | pIC50 ([2]; Rattus norvegicus): < 6.00

CC1(C)CC(CNS(=O)(=O)c2ccc(Cl)cc2)(Cc2ccc(CC(=O)O)cc2)C1 [Example 89, 4-[[1-[[[(4-Chlorophenyl)sulfonyl]amino]methyl]-3,3-dimethylcyclobutyl]methyl]benzeneacetic acid]
pIC50 ([1]; Cavia porcellus, Platelet): 6.59 | pIC50 ([2]; Rattus norvegicus): 7.52

O=C(O)Cc1ccc(CC2(CNS(=O)(=O)c3ccc(Cl)c(Cl)c3)CCCC2)cc1 [Example 26, 4-[[1-[[[(3,4-Dichlorophenyl)sulfonyl]amino]methyl]cyclopentyl]methyl]benzeneacetic acid]
pIC50 ([1]; Cavia porcellus, Platelet): 5.51 | pIC50 ([2]; Rattus norvegicus): 6.34

O=C(O)CCC(=O)c1ccc(CC2(CNS(=O)(=O)c3ccc(Cl)cc3)CCCC2)cc1 [Example 30, 4-[4-[[1-[[[(4-Chlorophenyl)sulfonyl]amino]methyl]cyclopentyl]methyl]phenyl]-4-oxobutanoic acid]
pIC50 ([1]; Cavia porcellus, Platelet): 6.04 | pIC50 ([2]; Rattus norvegicus): 6.00

Nc1ccc(S(=O)(=O)NCC2(Cc3ccc(CC(=O)O)cc3)CCCC2)cc1 [Example 86, 4-[[1-[[[(4-Aminophenyl)sulfonyl]amino]methyl]cyclopentyl]methyl]benzeneacetic acid]
pIC50 ([1]; Cavia porcellus, Platelet): 6.29 | pIC50 ([2]; Rattus norvegicus): 6.00

Complex of sodium 4-[[1-[[[(4-chlorophenyl)sulfonyl]amino]methyl]cyclopentyl]methyl]benzeneacetate and β-cyclodextrine (1:1) [Example 23]
pIC50 [1]: 6.32 | pIC50 [2]: 7.40

O=C(O)Cc1ccc(CC2(CNS(=O)(=O)c3ccc(Cl)cc3)CC2)cc1 [Example 72, 4-[[1-[[[(4-Chlorophenyl)sulfonyl]amino]methyl]cyclopropyl]methyl]benzeneacetic acid]
pIC50 ([1]; Cavia porcellus, Platelet): 6.19 | pIC50 ([2]; Rattus norvegicus): 7.40

CCOC(=O)Cc1ccc(CC2(CNS(=O)(=O)c3ccc(Cl)cc3)CCCC2)cc1 [Example 77, Ethyl 4-[[1-[[[(4-chlorophenyl)sulfonyl]amino]methyl]cyclopentyl]methyl]benzeneacetate]
pIC50 ([1]; Cavia porcellus, Platelet): 5.62 | pIC50 ([2]; Rattus norvegicus): < 6.00

O=C(O)Cc1ccc(CC2(CNS(=O)(=O)c3ccc(C(F)(F)F)cc3)CCCC2)cc1 [Example 55, 4-[[1-[[[(4-Trifluoromethylphenyl)sulfonyl]amino]methyl]cyclopentyl]methyl]benzeneacetic acid]
pIC50 ([1]; Cavia porcellus, Platelet): 5.54 | pIC50 ([2]; Rattus norvegicus): 7.00

O=C(O)c1ccc(CC2(CNS(=O)(=O)c3ccc(Cl)cc3)CCCC2)cc1 [Example 25, 4-[[1-[[[(4-Chlorophenyl)sulfonyl]amino]methyl]cyclopentyl]methyl]benzoic acid]
pIC50 ([1]; Cavia porcellus, Platelet): 5.82 | pIC50 ([2]; Rattus norvegicus): 7.22

O=C(O)Cc1ccc(C[C@@H]2CCC[C@H]2NS(=O)(=O)c2ccc(F)cc2)cc1 (relative stereo) [Example 4, Trans-4-[[2-[[(4-fluorophenyl)sulfonyl]amino]cyclopentyl]methyl]benzeneacetic acid]
pIC50 ([1]; Cavia porcellus, Platelet): 4.64 | pIC50 ([2]; Rattus norvegicus): 6.70
